Reference: patent publication US20240075002A1, “CREATINE COMPOSITION AND METHODS OF USING SAME” (NanoChem Solutions, Inc, priority 2022, published 2024)

Test: pH of the spray dried powder
Format: physicochemical
Method: In one exemplary embodiment, an aqueous solution of creatine sodium sulfate can be produced by dissolving about 72.96 grams of sodium hydrogen sulfate in about 811.86 grams of deionized water. The solution can be heated to about 145° F. and is maintained throughout the reaction. When the temperature of the sodium hydrogen sulfate solution reaches about 145° F., about 90.63 grams of creatine monohydrate can be added to the solution whereby the heat is maintained at about 145° F. and the mixture mixes with standard agitation for approximately 1 hour. After the hour, the solution is immediately piped to the spray dryer whereby it is spray dried into a powder with a total water of 3-7% by weight and with a water activity of less than 0.4. The pH of the spray dried powder is approximately 1.7. The mesh size of the spray-dried, stable, soluble sodium hydrogen sulfate powder is approximately 40-200 mesh, but can be adjusted depending on the requirements of the customer or desired end application.
In another exemplary embodiment, an aqueous solution of creatine potassium sulfate can be produced by dissolving about 109.53 grams of potassium hydrogen sulfate in about 806.68 grams of deionized water. The solution is can be heated to about 145° F. and is maintained throughout the reaction. […]

Row | SMILES | pH of the spray dried powder
1 | CN(CC(=O)O)C(=N)N.O=S(=O)([O-])[O-].[K+].[K+] [creatine potassium sulfate] | approximately 1.7
2 | CN(CC(=O)O)C(=N)N.O=S(=O)([O-])[O-].[Na+].[Na+] [creatine sodium sulfate] | approximately 1.7
